“And” between values parts separate entries of the source, which are not always exact repeats. Equal values may be shown once. Read-outs that look alike come from different tables or passages of the source. Each block holds one compound with its values, some of them ahead of it.
Legend:
HeLa-FKBP12 cells = assay: Biosensor cell permeability assay (FKBP destabilizing mutant), HeLa-FKBP12 cells; assay type: cell-based; conditions: 72 hrs
Protocol: Cell permeability of compounds can be determined using the following protocol.
This protocol utilizes a modified FKBP or cyclophilin destabilizing mutant to determine the bioactivity of FKBP binding compounds or cyclophilin binding compounds in whole cell assay.
DMEM, DMEM without Phenol Red, 10% FBS, 1× Sodium Pyruvate, 1× Glutamax. Add 125 μl of media with compound per well.
Plate HeLa-FKBP12 cells (for FKBP binding compounds) or HeLa-CyclophilinA cells (for cyclophilin binding compounds) and seed overnight at 5 k/well (approximately ˜18 hrs.). Using a multi-channel pipet, take out the old media and add ˜125 ul of new media with compounds. Compounds are diluted using DMEM without Phenol Red, 10% FBS, 1× Sodium Pyruvate, 1× Glutamax. Add 125 μL of media with compound per well. Cells are treated with compounds at concentration: 30, 10, 3.33, 1.11, 0.37, 0.12, 0.04 and 0.013 uM. Time points are taken at 72 hrs and plate read using plate reader with excitation/emission: 575/620.
Cell binding/permeability is calculated in fold-change (Total RFU of treated samples/total RFU of DMSO treated samples or total RFU above background (Total RFU minus total RFU of DMSO treated samples).

CEP250 [1] = target: T1, CEP250 (Homo sapiens, UniProt Q9BV73); assay: SPR binding of CEP250 (analyte) to immobilized FKBP12-F2 binary complex; conditions: 1 μM F2
T1 construct: CEP25011.4 (residues 2134-2231) (in-house); made in house
Protocol: This protocol utilizes Surface Plasmon Resonance (SPR) as a method to determine kinetics (KD, Ka, Kd) for the binding of CEP250 (analyte) to immobilized FKBP12-F2 binary complex (ligand).
Experiments are performed at 25° C. […] Approximately 200-400 RU of FKBP12 is immobilized on one of two flow cells of an activated NTA chip. The second flow cell is not activated as a reference for non-specific interaction of the analyte to the sensor chip. […] The surface is regenerated between analyte injections with 350 mM EDTA.
The BiaEvaluation software program is used for data fitting. All data is reference subtracted against both the reference flow cell and a buffer injection. For kinetic analyses, data is locally fit to a 1:1 interaction model.

CEP250 [2] = target: T2, CEP250 (Homo sapiens, UniProt P62942+Q9BV73); assay: Crystal structure analysis of FKBP12-compound-CEP250 ternary complexes
T2 construct: CEP25011.4 (residues 2134-2231) (in-house); made in house
Protocol: This protocol describes the crystallization and structure determination method for structures of FKBP12-Compound 2-CEP250 and FKBP12-F11-CEP250 ternary complexes.
A 3:1 molar excess of FKBP12-F2 or FKBP12-F11 binary complex is added to CEP25011.4 and incubated at 4° C. overnight to complete ternary complex formation. Pure ternary complex is isolated by gel filtration purification on a Superdex 200 column in 12.5 mM HEPES pH 7.4, 75 mM NaCl. Purified complex (at 10-20 mg/ml) is subjected to crystallization at 22° C. using sitting drop vapor diffusion. FKBP12-F2-CEP250 crystals grow in a well solution containing 0.2 M sodium malonate, 0.1 M HEPES 7.0, 21% PEG 3350. FKBP12-F11-CEP250 crystals grow in a well solution containing 0.1 M Tris pH 8.5, 0.2 M trimethylamine N-oxide, 22-24% PEG2000 MME. For data collection crystals are transferred to a solution containing mother liquor supplemented with 20-25% glycerol, and then frozen in liquid nitrogen. Diffraction datasets are collected at the Advanced Photon Source (APS) and processed with the HKL program. Molecular replacement solutions are obtained using the program PHASER in the CCP4 suite, using the published structure of FKBP12 (PDB-ID 1FKD) as a search model. Subsequent model building and refinement are performed according to standard protocols with the software packages CCP4 and COOT.

CEP250 [3] = target: T1, CEP250; assay: ITC binding of FKBP12-compound binary complexes to CEP250; conditions: FKBP12 10 μM + ligand 20 μM in cell, 298 K; for Kd: calculated from Ka = 1/Kd
FKBP12 [4] = target: T3, FKBP12 (Homo sapiens, UniProt P62942); assay: AlphaLISA inhibition of binding of biotinylated FK506 to FLAG tagged FKBP12; set-up: made in house; conditions: read-out: Binding affinity to FKBP12 (by displacement of FK506)
Text: The binding of compounds of the invention to FKBP12 can be determined using the following protocol.
This protocol utilizes Perkin Elmers AlphaLISA technology platform to detect FKBP binders by measuring the inhibition of binding of biotinylated FK506 to FLAG tagged FKBP12.
10×TBST Buffer (Boston BioProducts IBB-181), Biotinylated FK506 (in-house), FLAG tagged FKBP (in-house); anti-FLAG Donor beads (PerkinElmer AS103) and Streptavidin Acceptor beads (PerkinElmer AL125); Compounds in DMSO (in-house), FK506.
Add 20 uL of 12.5 nM FKBP-FLAG working stock to each well of the 96-well plate. Add 1 uL of test compound (100% DMSO) to each well of the plate using the Janus MTD head and P20 tips (except control wells). Add 1 uL of DMSO to negative control wells and 1 uL of 50 uM FK506 solution to positive control wells. In the dark, add 20 uL of combined Donor/Acceptor beads to each well. Incubate in the dark for 30 minutes at room temperature. In the dark, add 10 uL of 5 nM biotinylated FK506 working stock to each well. Incubate in the dark for 60 minutes at room temperature. Protect plate from light until reading on Biotek Synergy2 Plate Reader; Alphalisa 96-well protocol (680 excitation/615 emission).

FKBP12 [5] = target: T3, FKBP12; assay: SPR binding of compound (analyte) to immobilized FKBP12
Protocol: This protocol utilizes Surface Plasmon Resonance (SPR) as a method to determine kinetics (KD, Ka, Kd) for the binding of compound (analyte) to immobilized FKBP12 (ligand).
Compound in 100% DMSO (in-house), 10×HBS-P+ buffer (GE Healthcare BR-1006-71), Assay buffer (1×HBS-P+ buffer, 1% DMSO), 12×HIS tagged FKBP12 (in-house).
Experiments are performed at 25° C. Stock solution of 12×HIS tagged FKBP12 is diluted to 100 nM in assay buffer (1% DMSO final). Approximately 500-600 RU of FKBP12 is immobilized on one of two flow cells of an activated NTA chip. The second flow cell is not activated as a reference for non-specific interaction of the analyte to the sensor chip. Various concentrations of compound (1 nM-1 μM range), serially diluted into the same assay buffer (1% DMSO final), are injected onto the FKBP12 surface and reference surface at a flow rate of 10 μl/min. The surface is regenerated between analyte injections with 350 mM EDTA.
Experiments are performed at 25° C. Stock solution of 12×HIS tagged FKBP12 is diluted to 100 nM in assay buffer (1% DMSO final). Approximately 500-600 RU of FKBP12 is immobilized on one of two flow cells of an activated NTA chip. The second flow cell is not activated as a reference for non-specific interaction of the analyte to the sensor chip.

[6] = FKBP12-compound-CEP250 crystal structure
[7] = read-out: SPR affinity to FKBP12: KD, 25° C., Table 7

T3 sequence (P62942 whole entry, species assumed): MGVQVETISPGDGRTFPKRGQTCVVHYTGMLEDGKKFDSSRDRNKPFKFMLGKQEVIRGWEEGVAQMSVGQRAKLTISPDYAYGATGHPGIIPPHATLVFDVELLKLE
T2 sequence (Q9BV73 2134-2231): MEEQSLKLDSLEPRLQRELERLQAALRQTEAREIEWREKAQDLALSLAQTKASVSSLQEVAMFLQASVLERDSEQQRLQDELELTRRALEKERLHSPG
T2 sequence (P62942 whole entry, the tested form may be a part): as the sequence (P62942 whole entry, species assumed) above

Structure (SMILES): CC[C@H](Cc1ccccc1)[C@@H]1/C=C/C/C=C/C[C@@H](C)[C@H](O)[C@@H](C)[C@@H]2CC[C@@H](C)C(=O)C(O)(O2)C(=O)N2CCCC[C@H]2C(=O)O1 [Compound F2, (2S)-1-((4R,7S)-7-((2R,3S,4R,6E,9E,11R,12R)-12-benzyl-3,11-dihydroxy-4-methyltetradeca-6,9-dien-2-yl)-2-hydroxy-4-methyl-3-oxooxepane-2-carbonyl)piperidine-2-carboxylic acid C-11 lactone]
IC50 (HeLa-FKBP12 cells): < 1000 nM
Ka (CEP250 [1]; FKBP12/F2 complex to CEP25011.4 (residues 2134-2231)): 571000 M⁻¹ s⁻¹
Ka (CEP250 [1]; FKBP12/F2 complex to CEP25029.2 (residues 1982-2231)): 311000 M⁻¹ s⁻¹
buried surface area of CEP250 contributed by FKBP12 (CEP250 [2]; [6]): 663 Å^2
buried surface area of CEP250 contributed by the compound (CEP250 [2]; [6]): 232 Å^2 and 241 Å^2
total buried surface area of CEP250 (CEP250 [2]; [6]): 865 Å^2
total buried surface area of the ternary complex (CEP250 [2]; [6]): 1759 Å^2
binding interactions between compound and CEP250 that are van der Waals or pi-pi interactions (CEP250 [2]; ternary complex): 100%
ΔG (CEP250 [3]; CEP25011.4 68 μM in syringe): −40.75 kJ*mol −mol−1
ΔH (CEP250 [3]; CEP25011.4 68 μM in syringe): −49.37 kJ*mol −mol−1
−T*ΔS (CEP250 [3]; CEP25011.4 68 μM in syringe): 8.62 kJ*mol −mol−1
Kd (CEP250 [3]; CEP25011.4 68 μM in syringe): 70 nM
ΔG (CEP250 [3]; CEP25029.4 118 μM in syringe): −38.41 kJ*mol −mol−1
ΔH (CEP250 [3]; CEP25029.4 118 μM in syringe): −52.21 kJ*mol −mol−1
−T*ΔS (CEP250 [3]; CEP25029.4 118 μM in syringe): 13.80 kJ*mol −mol−1
Kd (CEP250 [3]; CEP25029.4 118 μM in syringe): 190 nM
IC50 (FKBP12 [4]): 1.5 nM
Ka (FKBP12 [5]; Example 10, 25° C., 1:1 interaction model): 45000 M⁻¹ s⁻¹
Kd (FKBP12 [5]; [7]): 12.6 nM

IC50 (HeLa-FKBP12 cells): < 1000 nM
IC50 (FKBP12 [4]): 60 nM
Kd (FKBP12 [5]; [7]): 141 nM
Structure (SMILES): CC1=CCC(O)CC(C(C)=CC(C)=CC2C=CC(O)C(O)C2)OC(=O)C2CCCCN2C(=O)CC2(O)OC(C(C)CC=CCC(O)C=C1)C(C)CC2C (centres unmarked) [Compound F6]

IC50 (HeLa-FKBP12 cells): < 1000 nM
IC50 (FKBP12 [4]): 0.3 nM
Kd (FKBP12 [5]; [7]): 0.23 nM
Structure (SMILES): COC1C(O)CCC(CC(C)C2CCCC=CCC(C)=CCC3OC(O)(C(=O)C(=O)N4CCCCC4C(=O)O2)C(C)CC3C)C1O (centres unmarked) [Compound F9]

IC50 (HeLa-FKBP12 cells): > 1000 nM
IC50 (FKBP12 [4]): 21.1 nM
Kd (FKBP12 [5]; [7]): 17.2 nM
Structure (SMILES): CCC1C=C(C)C(O)CCC(C)C=CC(O)C(C)C2CCC(C)C(O)(O2)C(=O)C(=O)N2CCCCC2C(=O)OC2C=CC(=CC2O)C=C(C)C1 (centres unmarked) [Compound F10]

buried surface area of CEP250 contributed by FKBP12 (CEP250 [2]; [6]): 590 Å^2
total buried surface area of CEP250 (CEP250 [2]; [6]): 831 Å^2
total buried surface area of the ternary complex (CEP250 [2]; [6]): 1648 Å^2
ΔG (CEP250 [3]; CEP25011.4 68 μM in syringe): −40.36 kJ*mol −mol−1
ΔH (CEP250 [3]; CEP25011.4 68 μM in syringe): −47.78 kJ*mol −mol−1
−T*ΔS (CEP250 [3]; CEP25011.4 68 μM in syringe): 7.41 kJ*mol −mol−1
Kd (CEP250 [3]; CEP25011.4 68 μM in syringe): 80 nM
ΔG (CEP250 [3]; CEP25029.4 118 μM in syringe): −36.74 kJ*mol −mol−1
ΔH (CEP250 [3]; CEP25029.4 118 μM in syringe): −58.48 kJ*mol −mol−1
−T*ΔS (CEP250 [3]; CEP25029.4 118 μM in syringe): 21.73 kJ*mol −mol−1
Kd (CEP250 [3]; CEP25029.4 118 μM in syringe): 360 nM
IC50 (FKBP12 [4]): 0.51 nM
Kd (FKBP12 [5]; KD, Example 10, 25° C., 1:1 interaction model): 15.6 nM
Kd (FKBP12 [5]; SPR affinity to FKBP12: KD, 25° C., Table 7): 21.5 nM
Structure (SMILES): CC[C@H](Cc1ccccc1)[C@@H]1CCCCCC[C@@H](C)[C@H](O)[C@@H](C)[C@@H]2CC[C@@H](C)C(=O)C(O)(O2)C(=O)N2CCCC[C@H]2C(=O)O1 [Compound F11, (2S)-1-((4R,7S)-7-((2R,3S,4R,11S,12R)-12-benzyl-3,11-dihydroxy-4-methyltetradecan-2-yl)-2-hydroxy-4-methyl-3-oxooxepane-2-carbonyl)piperidine-2-carboxylic acid C-11 Lactone]

IC50 (HeLa-FKBP12 cells): > 1000 nM
IC50 (FKBP12 [4]): 36.3 nM
Kd (FKBP12 [5]; [7]): 21.2 nM
Structure (SMILES): CC1=CC2=CC(O)C(C=C2)OC(=O)C2CCCCN2C(=O)C(=O)C2(O)OC(CCC2C)C(C)C(O)C=CC(C)CCC(O)C(C)=CC(C)C1 (centres unmarked) [Compound F12]

IC50 (HeLa-FKBP12 cells): > 1000 nM
IC50 (FKBP12 [4]): 4690 nM
Structure (SMILES): CC(=CC1C=CC(O)C(O)C1)C=C(C)C1CC(O)CC1C(C)(O)C=CC(O)CC=CCC(C)C1OC(O)(CC(=O)N2CCCCC2C(=O)O)C(C)CC1C (centres unmarked) [Compound F23]
